#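 Test compounds were applied to cells in 96-well plates for 48 hours at 5 doses. At the GI50, growth is halved. The concentration for full growth arrest is given as TGI.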
# What was measured:
# Experiment in all cases: NCI-60 cell line screen, 48 h
# 786-0 renal = test system: 786-0 renal
# A549 NSCLC = test system: A549 NSCLC
# ACHN renal = test system: ACHN renal
# BT-549 breast = test system: BT-549 breast
# CAKI-1 renal = test system: CAKI-1 renal
# CCRF-CEM leukemia = test system: CCRF-CEM leukemia
# COLO 205 colon = test system: COLO 205 colon
# DU-145 prostate = test system: DU-145 prostate
# EKVX NSCLC = test system: EKVX NSCLC
# HCC-2998 colon = test system: HCC-2998 colon
# HCT-116 colon = test system: HCT-116 colon
# HCT-15 colon = test system: HCT-15 colon
# HOP-62 NSCLC = test system: HOP-62 NSCLC
# HOP-92 NSCLC = test system: HOP-92 NSCLC
# HS 578T breast = test system: HS 578T breast
# HT29 colon = test system: HT29 colon
# IGROV1 ovarian = test system: IGROV1 ovarian
# K-562 leukemia = test system: K-562 leukemia
# KM12 colon = test system: KM12 colon
# LOX IMVI melanoma = test system: LOX IMVI melanoma
# MALME-3M melanoma = test system: MALME-3M melanoma
# MCF7 breast = test system: MCF7 breast
# MDA-MB-231 breast = test system: MDA-MB-231 breast
# MDA-MB-435 = test system: MDA-MB-435
# MOLT-4 leukemia = test system: MOLT-4 leukemia
# NCI-H226 lung = test system: NCI-H226 lung
# NCI-H460 lung = test system: NCI-H460 lung
# NCI-H522 lung = test system: NCI-H522 lung
# NCI/ADR-RES ovarian = test system: NCI/ADR-RES ovarian
# OVCAR-3 ovarian = test system: OVCAR-3 ovarian
# OVCAR-4 ovarian = test system: OVCAR-4 ovarian
# OVCAR-5 ovarian = test system: OVCAR-5 ovarian
# OVCAR-8 ovarian = test system: OVCAR-8 ovarian
# PC-3 prostate = test system: PC-3 prostate
# RPMI-8226 leukemia = test system: RPMI-8226 leukemia
# RXF 393 renal = test system: RXF 393 renal
# SF-268 CNS = test system: SF-268 CNS
# SF-295 CNS = test system: SF-295 CNS
# SF-539 CNS = test system: SF-539 CNS
# SK-MEL-2 melanoma = test system: SK-MEL-2 melanoma
# SK-MEL-28 melanoma = test system: SK-MEL-28 melanoma
# SK-MEL-5 melanoma = test system: SK-MEL-5 melanoma
# SK-OV-3 ovarian = test system: SK-OV-3 ovarian
# SN12C renal = test system: SN12C renal
# SNB-19 CNS = test system: SNB-19 CNS
# SNB-75 CNS = test system: SNB-75 CNS
# SR leukemia = test system: SR leukemia
# SW-620 colon = test system: SW-620 colon
# T-47D breast = test system: T-47D breast
# TK-10 renal = test system: TK-10 renal
# U251 CNS = test system: U251 CNS
# UACC-257 melanoma = test system: UACC-257 melanoma
# UACC-62 melanoma = test system: UACC-62 melanoma
# UO-31 renal = test system: UO-31 renal
compound,measurement,setting,value
COc1cc2ccnc3c2c(c1OC)-c1ccc(=O)ccc1-3,GI50,786-0 renal,22.4 µM
same,TGI,786-0 renal,> 100 µM
same,GI50,A549 NSCLC,18.2 µM
same,TGI,A549 NSCLC,55.4 µM
same,GI50,ACHN renal,19.3 µM
same,TGI,ACHN renal,44.6 µM
same,GI50,BT-549 breast,32.1 µM
same,TGI,BT-549 breast,> 100 µM
same,GI50,CAKI-1 renal,16.5 µM
same,TGI,CAKI-1 renal,39.5 µM
same,GI50,CCRF-CEM leukemia,13.7 µM
same,TGI,CCRF-CEM leukemia,41.7 µM
same,GI50,COLO 205 colon,35.2 µM
same,TGI,COLO 205 colon,97.8 µM
same,GI50,DU-145 prostate,28.8 µM
same,TGI,DU-145 prostate,> 100 µM
same,GI50,EKVX NSCLC,29.8 µM
same,TGI,EKVX NSCLC,99 µM
same,GI50,HCC-2998 colon,32.1 µM
same,TGI,HCC-2998 colon,> 100 µM
same,GI50,HCT-116 colon,5.25 µM
same,TGI,HCT-116 colon,34.5 µM
same,GI50,HCT-15 colon,22.5 µM
same,TGI,HCT-15 colon,77.1 µM
same,GI50,HOP-62 NSCLC,32.5 µM
same,TGI,HOP-62 NSCLC,> 100 µM
same,GI50,HOP-92 NSCLC,14.4 µM
same,TGI,HOP-92 NSCLC,80.4 µM
same,GI50,HS 578T breast,36.6 µM
same,TGI,HS 578T breast,> 100 µM
same,GI50,HT29 colon,14.8 µM
same,TGI,HT29 colon,68.9 µM
same,GI50,IGROV1 ovarian,47 µM
same,TGI,IGROV1 ovarian,> 100 µM
same,GI50,K-562 leukemia,14.5 µM
same,TGI,K-562 leukemia,35.5 µM
same,GI50,KM12 colon,43.6 µM
same,TGI,KM12 colon,> 100 µM
same,GI50,LOX IMVI melanoma,21 µM
same,TGI,LOX IMVI melanoma,46.5 µM
same,GI50,MALME-3M melanoma,37.9 µM
same,TGI,MALME-3M melanoma,75.5 µM
same,GI50,MCF7 breast,14.9 µM
same,TGI,MCF7 breast,> 100 µM
same,GI50,MDA-MB-231 breast,26.9 µM
same,TGI,MDA-MB-231 breast,> 100 µM
same,GI50,MDA-MB-435,31.5 µM
same,TGI,MDA-MB-435,90.6 µM
same,GI50,MOLT-4 leukemia,3.6 µM
same,TGI,MOLT-4 leukemia,18.7 µM
same,GI50,NCI-H226 lung,17.7 µM
same,TGI,NCI-H226 lung,45.8 µM
same,GI50,NCI-H460 lung,20.7 µM
same,TGI,NCI-H460 lung,> 100 µM
same,GI50,NCI-H522 lung,23.4 µM
same,TGI,NCI-H522 lung,71.3 µM
same,GI50,NCI/ADR-RES ovarian,17.4 µM
same,TGI,NCI/ADR-RES ovarian,57.6 µM
same,GI50,OVCAR-3 ovarian,21.8 µM
same,TGI,OVCAR-3 ovarian,56.2 µM
same,GI50,OVCAR-4 ovarian,21.7 µM
same,TGI,OVCAR-4 ovarian,74.7 µM
same,GI50,OVCAR-5 ovarian,51.7 µM
same,TGI,OVCAR-5 ovarian,> 100 µM
same,GI50,OVCAR-8 ovarian,13.4 µM
same,TGI,OVCAR-8 ovarian,58.8 µM
same,GI50,PC-3 prostate,29.7 µM
same,TGI,PC-3 prostate,> 100 µM
same,GI50,RPMI-8226 leukemia,18.4 µM
same,TGI,RPMI-8226 leukemia,51.9 µM
same,GI50,RXF 393 renal,18.7 µM
same,TGI,RXF 393 renal,77 µM
same,GI50,SF-268 CNS,39.1 µM
same,TGI,SF-268 CNS,> 100 µM
same,GI50,SF-295 CNS,23.2 µM
same,TGI,SF-295 CNS,67.8 µM
same,GI50,SF-539 CNS,15.9 µM
same,TGI,SF-539 CNS,77.3 µM
same,GI50,SK-MEL-2 melanoma,52.6 µM
same,TGI,SK-MEL-2 melanoma,> 100 µM
same,GI50,SK-MEL-28 melanoma,23.7 µM
same,TGI,SK-MEL-28 melanoma,66.9 µM
same,GI50,SK-MEL-5 melanoma,17.1 µM
same,TGI,SK-MEL-5 melanoma,47.9 µM
same,GI50,SK-OV-3 ovarian,41.5 µM
same,TGI,SK-OV-3 ovarian,> 100 µM
same,GI50,SN12C renal,31 µM
same,TGI,SN12C renal,> 100 µM
same,GI50,SNB-19 CNS,55.3 µM
same,TGI,SNB-19 CNS,> 100 µM
same,GI50,SNB-75 CNS,25.9 µM
same,TGI,SNB-75 CNS,80.1 µM
same,GI50,SR leukemia,2.95 µM
same,TGI,SR leukemia,21.4 µM
same,GI50,SW-620 colon,13.9 µM
same,TGI,SW-620 colon,> 100 µM
same,GI50,T-47D breast,27.6 µM
same,TGI,T-47D breast,65.5 µM
same,GI50,TK-10 renal,35.1 µM
same,TGI,TK-10 renal,83.5 µM
same,GI50,U251 CNS,27.6 µM
same,TGI,U251 CNS,96.9 µM
same,GI50,UACC-257 melanoma,25.4 µM
same,TGI,UACC-257 melanoma,63.5 µM
same,GI50,UACC-62 melanoma,14.6 µM
same,TGI,UACC-62 melanoma,34 µM
same,GI50,UO-31 renal,30 µM
same,TGI,UO-31 renal,> 100 µM

# Reference: PubChem BioAssay (NCI)
